Measurements as given in patent publication US20090215775A1, “Sulphonamido-Substituted Cyclohexyl Sulphones for Treatment of Cancer” (priority 2005, published 2009).

Test system: Cells expressing Notch (ALL-SIL, DND-41, HPB-ALL or TALL-1)
Experiment: Assay for Cell Cycle Arrest (propidium iodide, FACS)
Assay type: cell-based
Settings: concentrations up to 10 μM; incubation typically 4-8 days; in comparison to untreated controls
Procedure: Cells expressing Notch (ALL-SIL, DND-41, HPB-ALL or TALL-1) (Weng et al, Science, 306 (2004), 269-71) are incubated in the presence or absence of a compound of the instant invention (e.g. the compound of Example 47 below) at concentrations up to 10 μM. At the end of the incubation (typically 4-8 days), the cells are collected, fixed in 70% ethanol on ice for >2 hours, washed, then labelled for 15 min at 37° C. with propidium iodide (0.2 mg/ml) (PI) in the presence of 0.1% Triton X100 and 0.2 mg/ml RNase and subjected to FACS analysis.

O=S(=O)(N[C@H]1CC[C@@](c2cc(F)ccc2F)(S(=O)(=O)c2ccc(Cl)cc2)CC1)C(F)(F)F [Example 47, trifluoromethanesulfonic acid, N-[4-(4-chlorobenzenesulfonyl)-4-(2,5-difluorophenyl)-cyclohexyl]-amide]
G2- and S-phase populations (FACS analysis): severe loss of G2- and S-phase populations
